Results as given in PMC11494662, “Insight into the Course of the Ferrier Rearrangement Used to Obtain Untypical Diosgenyl Saponins” (The Journal of Organic Chemistry, 2024).
≈ marks a conversion by molar mass, not a printed value.

Columns and labels:
S. aureus ATCC 6538 = experiment: MIC, broth dilution method; format: cell-based; details: Staphylococcus aureus, ATCC6538; MHB II, 18 h, 37 °C; read-out: Minimum inhibitory concentration S. aureus ATCC 6538
Experimental: (§1) MIC was determined with the dilution method in Mueller–Hinton II broth (MHB II) on 96-well polystyrene plates. The reference strains (Polish Academy of Sciences, Wroclaw, Poland) of Gram-positive bacteria (Enterococcus faecium ATCC 29,212, S. aureus ATCC 6538, S. aureus ATCC 43,300, S. aureus ATCC 12,598, S. aureus ATCC 25,923, S. aureus, ATCC 33,591, Staphylococcus epidermidis ATCC 14,990) and Gram-negative bacteria (Acinetobacter baumanii ATCC 23,506, Escherichia coli ATCC 25,922, Klebsiella pneumoniae ATCC 700,603, Pseudomonas aeruginosa ATCC 9027) were suspended in MHB II medium to initial inoculum of 10^5 cfu/mL. The microbes were exposed to graded concentrations of tested compounds (range 0.5–256 mg/L) for 18 h at 37 °C under aerobic conditions. The compounds were dissolved in DMSO and then diluted with PBS. […] MIC was taken as the lowest concentration at which no microbial growth was observed. The experiments were performed in triplicate.

S. aureus ATCC 33591 = experiment: MIC, broth dilution method; format: cell-based; details: Staphylococcus aureus, ATCC33591; MHB II, 18 h, 37 °C; read-out: Minimum inhibitory concentration S. aureus ATCC 33591
Experimental: as §1

S. aureus ATCC 12598 = experiment: MIC, broth dilution method; format: cell-based; details: Staphylococcus aureus, ATCC12598; MHB II, 18 h, 37 °C; read-out: Minimum inhibitory concentration S. aureus ATCC 12598
Experimental: as §1

S. aureus ATCC 25923 = experiment: MIC, broth dilution method; format: cell-based; details: Staphylococcus aureus, ATCC25923; MHB II, 18 h, 37 °C; read-out: Minimum inhibitory concentration S. aureus ATCC 25923
Experimental: as §1

[1] = test system: S. epidermidis ATCC 14990; experiment: MIC, broth dilution method; format: cell-based; details: Staphylococcus epidermidis, ATCC14990; MHB II, 18 h, 37 °C; read-out: Minimum inhibitory concentration S. epidermidis ATCC 14990
Experimental: as §1

S. aureus ATCC 43300 = experiment: MIC, broth dilution method; format: cell-based; details: Staphylococcus aureus, ATCC43300; MHB II, 18 h, 37 °C; read-out: Minimum inhibitory concentration S. aureus ATCC 43300
Experimental: as §1

E. faecium ATCC 29212 = experiment: MIC, broth dilution method; format: cell-based; details: Enterococcus faecium, ATCC29212; MHB II, 18 h, 37 °C; read-out: Minimum inhibitory concentration E. faecium ATCC 29212
Experimental: as §1

[2] = test system: Staphylococcus aureus strains tested, including methicilin-resistant S. aureus; experiment: Antistaphylococcal activity, summary over the strains tested; format: cell-based; details: range over the S. aureus strains tested
Experimental: as §1

[3] = test system: prostate cancer cells (PC3 line); experiment: MTT cytotoxicity assay, PC3; format: cell-based, human; details: for IC50: Homo sapiens, PC-3, PC3 cells, 48 h treatment, MTT; for SI PC3 (selectivity index): ratio of IC50 for normal cell line (HaCaT) to IC50 for PC3, 48 h
Experimental: (§2) The MTT assay was performed to specify the cytotoxicity of 7–12 and 13–18 against prostate cancer cells (PC3 line), breast cancer cells (MCF7 line), and human keratinocytes (HaCaT line). The mentioned cell lines were assayed by exposing them for 48 h to a medium containing the studied compounds over a wide range of concentrations. The IC50 values (dose of the compound which caused a 50% reduction of cell viability) and the selectivity indexes (SI), which show the ratio of IC50 for normal cell line to IC50 for cancer cell line, are shown in Table S2. An MTT assay was performed to specify the cytotoxicity of the studied compounds against breast cancer cells (MCF-7 line, ATCC), prostate cancer cells (PC3 line, ATCC) and human keratinocytes (HaCaT line, CLS). The MCF-7 cell line was cultured in an RPMI 1640 medium (Gibco, Thermo Fisher Scientific), the PC3 cell line in a F-12K medium (Gibco, Thermo Fisher Scientific), and the HaCaT cell line in a high-glucose DMEM (Gibco, Thermo Fisher Scientific). Each medium was supplemented with 10% fetal bovine serum (Gibco, Thermo Fisher Scientific) and antibiotics (penicillin and streptomycin, Gibco, Thermo Fisher Scientific). Cells were seeded at a density of 4000 per well into 96-well plates and incubated at 37 °C in a 5% CO2 atmosphere. The cells were treated with studied compounds in a concentration range of 0.1–100 μg/mL or with a vehicle (1% DMSO) as a control and subsequently incubated for 48 h. Thereafter, the MTT salt solution (3-(4,5-dimethylthiazol-2-yl)-2,5-diphenyltetrazolium bromide, VWR) was added at a concentration of 4 mg/mL (25 μL per well), and the obtained product (formazan) after 3 h of incubation was dissolved in DMSO. An EnSpire microplate reader (PerkinElmer) was used to measure absorbance at 570 nm (the reference wavelength was 660 nm). The viability of the control cells was taken as 100%. Three independent experiments were conducted in triplicate. Statistical analysis of the results and estimation of IC50 values were performed using GraphPad Prism 7 software.

[4] = test system: breast cancer cells (MCF-7 line); experiment: MTT cytotoxicity assay, MCF7; format: cell-based, human; details: for IC50: Homo sapiens, MCF7 cells, 48 h treatment, MTT; for SI MCF7 (selectivity index): ratio of IC50 for normal cell line (HaCaT) to IC50 for MCF7, 48 h
Experimental: as §2

[5] = test system: human keratinocytes (HaCaT line); experiment: MTT cytotoxicity assay, HaCaT; format: cell-based; details: Homo sapiens, HaCaT normal cells, 48 h treatment
Experimental: as §2

Structure (SMILES) | MIC (S. aureus ATCC 6538) [µg/mL] | MIC (S. aureus ATCC 33591) [µg/mL] | MIC (S. aureus ATCC 12598) [µg/mL] | MIC (S. aureus ATCC 25923) [µg/mL] | MIC [1] [µg/mL] | MIC (S. aureus ATCC 43300) [µg/mL] | MIC (E. faecium ATCC 29212) [µg/mL] | concentrations at which antistaphylococcal activity was achieved [2] [mg/L] | IC50 [3] [µM] | SI PC3 (selectivity index) [3] | IC50 [4] [µM] | SI MCF7 (selectivity index) [4] | IC50 [5] [µM]
C[C@@H]1CC[C@@]2(OC1)O[C@H]1C[C@H]3[C@@H]4CC=C5C[C@@H](O[C@@H]6CC[C@@H](O)[C@@H](CO)O6)CC[C@]5(C)[C@H]4CC[C@]3(C)[C@H]1[C@@H]2C [14α, Diosgenyl 2,3-Dideoxy-α-D-threo-hexopyranoside] | 64 (≈ 117 µM) | 256 (≈ 470 µM) | 256 (≈ 470 µM) | 64 (≈ 117 µM) | > 256 | 128 (≈ 235 µM) | > 256 | 64 to 256 | 41.1 | 1.29 | 25 | 2.13 | 53.2
C[C@@H]1CC[C@@]2(OC1)O[C@H]1C[C@H]3[C@@H]4CC=C5C[C@@H](O[C@@H]6CC[C@H](O)CO6)CC[C@]5(C)[C@H]4CC[C@]3(C)[C@H]1[C@@H]2C [17α] | 128 (≈ 249 µM) | 256 (≈ 497 µM) | 256 (≈ 497 µM) | 256 (≈ 497 µM) | > 256 | 128 (≈ 249 µM) | > 256 | 128 to 256 | 73.2 | 0.66 | 68.2 | 0.71 | 48.3
C[C@@H]1CC[C@@]2(OC1)O[C@H]1C[C@H]3[C@@H]4CC=C5C[C@@H](O[C@H]6CC[C@H](O)[C@H](C)O6)CC[C@]5(C)[C@H]4CC[C@]3(C)[C@H]1[C@@H]2C [16α, Diosgenyl 2,3,6-Trideoxy-α-L-threo-hexopyranoside] | > 256 | > 256 | > 256 | > 256 | > 256 | > 256 | > 256 | – | 29.9 | 1.02 | 36.6 | 0.84 | 30.6
C[C@@H]1CC[C@@]2(OC1)O[C@H]1C[C@H]3[C@@H]4CC=C5C[C@@H](O[C@@H]6C=C[C@H](O)CO6)CC[C@]5(C)[C@H]4CC[C@]3(C)[C@H]1[C@@H]2C [11α] | 256 (≈ 499 µM) | > 256 | > 256 | > 256 | 256 (≈ 499 µM) | > 256 | > 256 | – | 24.4 | 1.00 | 40.6 | 0.60 | 24.5
